# Assay: Inhibitory effect on free radical diphenylpicrylhydrazide, UV spectrophotometry at 517 nm
# Details: for Inhibition % / Absorbance at 517 nm: ethanolic solution, 20 micromoles by liter of compound, 100 micromeres by liter of radical (VIII), 30 minutes at 20° C.; for Absorbance at 517 nm: vat 1 cm, control only 1.15
# Method: The anti-oxidizing potential in solution of the amide-phenol compounds (I) and (II) was evaluated by the degree of their reaction with radical free diphenyl-picrylhydrazide (VIII) following C. T. Ho, Journal of Agricultural and Food Chemistry, 1999, p.
# The inhibitory effect of the free radicals claimed for the compounds (Ia) and (IIa) has been evaluated by the measure of their absorbencies in UV spectrophotometry at 517 nanometers in the presence of an excess of radical diphenylpicrylhydrazide (VIII).
# Ethanolic solutions containing 20 micromoles by liter of compound to test and 100 micromeres by liter of radical (VIII) agitated for 30 minutes at 20° C. and placed in a vat 1 cm of length.
SMILES,Inhibition % [%],Absorbance at 517 nm,inhibitory activity compared with TROLOX and methyl gallate (in words) (diphenylpicrylhydrazide radical test)
"Cc1c(C)c2c(c(C)c1O)CCC(C)(C(=O)O)O2 (stereo not shown) [TROLOX (IVa), 6-hydroxy-2,5,7,8-tetramethyl chroman-2-carboxylic acid]",91,0.10,–
"COC(=O)c1cc(O)c(O)c(O)c1 [Gallate of methyl (IIIa), methyl gallate]",71,0.33,–
CCCCCCCCCCC(CO)NC(=O)c1cc(O)c(O)c(O)c1 (stereo not shown) [Gallic amide (Ia)],70,0.35,lower than TROLOX but comparable to that of methyl gallate

# From patent US20070281991A1, “Preparation Of Phenol-Amide Compounds With Anti-Oxidizing Properties” (priority 2004, published 2007)
